Data reported in PubChem BioAssay AID179 (DTP/NCI, 2004).
pEC50, pIC50: −log10 of the molar value. Calls of active or inactive are those of the source.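 The calls were made as follows: active = compounds giving half or more protection of infected cells from virus-caused growth loss, again on retest; inactive = the rest.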 Where a SMILES comes first, the peptide text is derived from it. [ ]: non-standard residue; d: D form. The star is where a group is joined. AllylGly = C=CC[CH](N)C(=O)O; Boc = CC(C)(C)OC(=O)*; OtBu = CC(C)(C)O*

System: CEM cells HIV-1 protection, formazan growth assay
Assay: NCI AIDS Antiviral Assay
Details: for pIC50: measured here: growth of uninfected CEM cells
How it was run: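 Screen of anti-HIV-1 activity in human CEM cells using a formazan-based growth measurement at five drug concentrations. Hits with 50% or greater protection were repeated, and confirmation required reproducible complete protection.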

Structure (SMILES)	pEC50	pIC50	outcome
CC(=O)N1C(c2[nH]c3ccccc3c2-c2ccccc2)CCN1c1ccccc1 (centres undefined)	< 3.70	4.13	
Cn1c(=O)c(N=Nc2c(=O)n(C)c(=O)n3c2[nH]c2ccccc23)c2[nH]c3ccccc3n2c1=O	< 4.47	< 4.47	
CC12C(=O)N(CCN)C(=O)C1C1c3ccccc3C2c2ccccc21 (centres undefined)			inactive
CC(C)(C)NN=C1C(C)(C)C(=NNC(C)(C)C)C1(C)C	< 3.50	< 3.50	
O=S(=O)(SCCCCSS(=O)(=O)c1ccc(Cl)cc1)c1ccc(Cl)cc1	5.09	5.02	
C=C1C(=O)OCC2C(C(=O)O)=CC3C(C)C(C)=CC123 (centres undefined)	< 3.16	4.95	
CC1CCc2c(sc3ncnc(N/N=C/c4ccc(Cl)cc4)c23)C1 (centres undefined)	< 4.84	< 4.84	
N#CC(C#N)=c1ccc(=C2NCC3CCCN23)cc1 (centres undefined)			inactive
CCC1(CC)SCC(=O)NC1=O	< 3.70	< 3.70	
COc1cc2c(c(C3C(=O)N(C)c4ccc(Br)cc43)c1OC)OCO2 (centres undefined)	< 3.70	< 3.70	
CC1=N/C(=C\c2ccccc2F)C(=O)O1	< 3.20	< 3.20	
CC1c2c(cc(=O)[nH]c2O)C(=O)N1Cc1ccccc1 (centres undefined)	< 3.46	3.52	
CC(C)=CC(=O)N(C)C1C2CN3CCC(O2)C13 (centres undefined)			inactive
C=CCn1c(-c2ccccc2)nn(CC(=O)Nn2c(C)nc3ccccc3c2=O)c1=S			inactive
O=c1cc(N=Nc2ccc(Br)cc2)[nH]c(=S)[nH]1	< 3.70	5.96	
CCCCCCCCCCCC(=O)OCCOCCOCCOCCOCCOCc1ccc(OC)cc1			inactive
C=CCC(NC(=O)C(CC(=O)OC(C)(C)C)NC(=O)OC(C)(C)C)C(=O)OC (centres undefined) (Boc-Asp(OtBu)-[AllylGly]-OMe; configuration not given here)	< 3.70	4.01	
O=[N+]([O-])c1ccc2[nH]c(=S)n(/C=C(/c3ccc(Cl)cc3)S(=O)(=O)Cc3ccc(Cl)cc3)c2c1	< 3.70	3.99	
COc1ccc(C2(O)CCCCC2)cc1	< 4.18	< 4.18	
Cc1cc(CC(=O)NCCO)n(CCO)c(=O)c1	< 3.01	< 3.01	
CCOC(=O)OC(=S)N(C1CCCCC1)C1CCCCC1	< 3.70	4.01	
COc1ccc(C2=Cc3nc2c(-c2ccccc2)c2ccc([nH]2)c(-c2ccccc2)c2nc(c(-c4ccccc4)c4ccc([nH]4)c3-c3ccccc3)C=C2)cc1	< 4.00	< 4.00	

Structure (SMILES)	pEC50	pIC50	outcome
C=CCNC(=O)NC1=CSC2=NC(=O)C3(NN12)c1ccccc1-c1ccccc13	< 3.70	4.23	
O=C1OCC=C1COC1OC(CO)C(O)C(O)C1O (centres undefined)	< 3.70	4.11	
COc1c(Sc2ccccc2)cc(Sc2ccccc2)c2cccnc12			inactive
CCOC(=O)NC(Nc1ccc(C(=O)OCC)cc1)(C(F)(F)F)C(F)(F)F	< 3.70	4.77	
CC(C)(C)CP(=S)(CC(C)(C)C)CC(C)(C)C	< 3.93	< 3.93	
c1cnc2c(c1)n[n+]1[n-]c3ccccc3n21	< 4.91	< 4.91	
CCOC(=O)c1c(C)nc2c(c1-c1cn(-c3ccccc3)nc1-c1ccccc1)C(=O)c1ccccc1-2			inactive
O=S1OC[C@H](CCCl)O1 (some centres undefined)	< 3.70	< 3.70	
CCCCSC(=CC(=O)c1cccc(C(=O)C=C(SCCCC)SCCCC)n1)SCCCC	< 5.43	< 5.43	
COCCOC(=O)C1=C(O)c2ccccc2S(=O)(=O)N1C	< 3.10	3.25	
OCC(O)C(O)C(O)C(O)c1nc2ccccc2s1 (centres undefined)	< 3.90	4.01	
O=C(O)Cc1cc(=O)oc2cc(O)c(Cl)cc12	< 3.15	< 3.15	
CC(=O)OC1CC2OC(Cc3ccccc32)O1 (centres undefined)	< 3.70	< 3.70	
COC1C(N(C)C)=C(c2ccccc2)C(=O)N2CCc3ccccc3C12 (centres undefined)	< 3.70	3.77	
O=C1CC2C=CC(O)C(C1)C2 (centres undefined)	< 3.70	< 3.70	
C/C=C/C1C=Cc2ccccc2C1(C)C1=NC(C)(C)CO1 (centres undefined)	< 4.59	< 4.59	
CCN(CC)CC1CCCCN1CC(=O)N1c2cc(Cl)ccc2NC(=O)CC1C (centres undefined)	4.01	< 3.70	
Cc1cc2[n-]c1/C=c1\[n-]/c(c(CCC(=O)O)c1C)=C\c1[n-]c(c(C)c1CCC(=O)O)/C=c1/cc(C)/c([n-]1)=C/2.[Ni]	< 5.04		
CN(C)CCCNC(=O)c1cc(NC(=O)c2cc(NC(=O)c3cc(NC(=O)c4ncccc4C(=O)O)cn3C)cn2C)cn1C	< 3.70	< 3.70	
COc1cc(-c2nc(SC)nc3c2CCc2ccccc2-3)cc(OC)c1OC	< 3.70	< 3.70	
CC(C)=CCN1Cc2cccc3[nH]c(=S)n(c23)C[C@@H]1C	7.52	5.76	
Cn1/c(=N\S(=O)(=O)c2ccccc2)n(S(=O)(=O)c2ccccc2)c2ccccc21	< 3.70	< 3.70	

Structure (SMILES)	pEC50	pIC50	outcome
Cc1ccc(S(=O)(=O)NNCNC(=O)c2ccccc2)cc1			inactive
CN(C)CCNC(=O)c1ccccc1Nc1c(Cl)cccc1Cl	< 3.70	4.40	
Cc1cc(Cl)ccc1NC(=O)CCCC(=O)C1C/C(=N/O)CC/C1=N\O (centres undefined)	< 4.02	< 4.02	
COC1=CC(=O)c2cc(C)cc(-c3cc4ccc(=O)oc4cc3OC)c2C1=O			inactive
O=[N+]([O-])c1ccc(Sc2c3ccccc3nc3ccccc23)nc1	< 3.70	5.28	
CC1(C)OCC(/C=C\C(O)CC2(C)OCCO2)CO1 (centres undefined)			inactive
C1=Cc2nc1c(-c1ccccc1)c1ccc([nH]1)c(-c1ccccc1)c1nc(c(-c3ccccc3)c3ccc([nH]3)c2-c2ccccc2)C=C1	< 5.63	< 5.63	
CN(C)CCC(/C=C/c1ccccc1)=N\Nc1ccc(Cl)cc1Cl			inactive
COC1/C=C\OC2(C)Oc3c(C)c(O)c4c(O)c(c(CN(C)C)c(O)c4c3C2=O)NC(=O)/C(C)=C\C=C/C(C)C(O)C(C)C(O)C(C)C(OC(C)=O)C1C (centres undefined)			inactive
CC1=CC2(O)OC3(CC2=C(C)C)C(C)CCC13 (centres undefined)	< 3.70	< 3.70	
CC1=C2[C@@H](c3ccccc3)C3C=CC2(c2ccccc23)N(C(=O)Nc2cccc3ccccc23)C1=O (some centres undefined)	< 5.24	< 5.24	
CCOC(C)=Nc1cc(OC)cc2c1NC(=O)CCS2	< 3.70	< 3.70	
CC1=CC(=O)N2C(OC[C@@H]2c2ccccc2)O1 (some centres undefined)	< 3.25	< 3.25	
N#C/C(=C\c1ccccc1)c1ccc(F)cc1	< 3.70	4.27	
CC(O)CSP(=S)(Oc1ccccc1)Oc1ccccc1 (centres undefined)	< 4.40	< 4.40	
COc1ccc2c(c1)OC[C@@H]1c3cc(NC(=O)c4ccccc4)c(OC)cc3N(S(=O)(=O)c3ccccc3)[C@H]21	< 3.70	< 3.70	
CCOC(=O)n1c2ccccc2c2c(O)c(OC)c3c(c21)C(=O)NC3=O	< 3.70	4.52	
COc1ccc(C(O)CC(O)(C(F)(F)F)C(F)(F)F)cc1 (centres undefined)	< 3.70	< 4.00	
COc1ccc2c(c1OC)CN(C)CCc1cc3c(c(OC)c1C(=O)C2)OCO3			inactive
Cc1c(N=Nc2ccc(Br)cc2)c(=O)n(-c2ccccc2)c(=S)n1-c1nc2ccccc2s1	< 4.08	4.71	
